Assay results reported in ChEMBL document CHEMBL1135511, “Structure activity of 3-aryl-1,3-diketo-containing compounds as HIV-1 integrase inhibitors” (J Med Chem, 2002).

How the values were obtained:
[1] = target: T1, Human immunodeficiency virus type 1 integrase (Human immunodeficiency virus 1, UniProt Q7ZJM1)
[2] = target: T1, Human immunodeficiency virus type 1 integrase; remark: listed apart in the source
[3] = Inhibitory concentration by single cycle replication assay using envelope deficient HIV-1; type: functional, Homo sapiens
[4] = target: T1, Human immunodeficiency virus type 1 integrase; assay: Inhibitory effect on 3'-processing(3'-P) of proximal DNA in an extracellular HIV-1 integrase assay in experiment 2
[5] = target: T1, Human immunodeficiency virus type 1 integrase; assay: Inhibitory effect on strand transfer of proximal DNA into host DNA in an extracellular HIV-1 integrase assay in experiment 1
[6] = target: T1, Human immunodeficiency virus type 1 integrase; assay: Inhibitory effect on strand transfer of proximal DNA into host DNA in an extracellular HIV-1 integrase assay in experiment 2
[7] = target: T1, Human immunodeficiency virus type 1 integrase; assay: Inhibitory effect on 3'-processing(3'-P) of proximal DNA in an extracellular HIV-1 integrase assay in experiment 1

T1 sequence (Q7ZJM1 whole entry): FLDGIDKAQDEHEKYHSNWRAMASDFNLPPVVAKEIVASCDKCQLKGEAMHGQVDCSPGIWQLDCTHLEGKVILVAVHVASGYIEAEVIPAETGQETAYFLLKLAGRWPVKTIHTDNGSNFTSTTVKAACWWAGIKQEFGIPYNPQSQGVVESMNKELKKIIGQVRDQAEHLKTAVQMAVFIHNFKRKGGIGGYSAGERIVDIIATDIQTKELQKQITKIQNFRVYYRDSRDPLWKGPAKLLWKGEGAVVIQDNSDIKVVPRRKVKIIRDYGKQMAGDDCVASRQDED

IC50 [1] [µM] | IC50 [2] [µM] | SMILES | also measured
> 100 | > 100 | COc1ccc(Cn2nnnc2C(=O)/C=C(\O)c2cc(OCc3ccccc3)cc(OCc3ccccc3)c2)cc1 | –
6.9 | > 100 | CCOC(=O)C(=O)/C=C(\O)c1c[nH]c2ccc(Cl)cc12 | –
> 100 | > 100 | COc1cc(Cn2nnnc2C(=O)/C=C(\O)c2c[nH]c3ccccc23)cc(OC)c1 | –
– | > 100 | O=C(O)C(=O)/C=C(\O)c1ccc(Oc2ccccc2)cc1 | IC50 [5]: 7800 nM; IC50 [6]: 15 µM
1.83 | 7.8 | O=C(O)C(=O)/C=C(\O)c1cccc(/C(O)=C/C(=O)C(=O)O)c1 | –
1.28 | – | O=C(O)C(=O)/C=C(\O)c1ccc(/C(O)=C/C(=O)C(=O)O)cc1 | IC50 [7]: 7.2 µM; IC50 [4]: 7.5 µM
> 100 | > 100 | COc1ccc(Cn2nnnc2C(=O)/C=C(\O)c2c[nH]c3ccccc23)cc1 | –
– | > 100 | O=C(O)C(=O)/C=C(\O)c1cccc(Br)c1 | IC50 [5]: 2000 nM; IC50 [6]: 3 µM
0.48 | > 1000 | O=C(O)C(=O)/C=C(\O)c1cc(OCc2ccccc2)cc(OCc2ccccc2)c1 | IC50 [3]: 2300 nM
35 | > 100 | O=C(O)C(=O)/C=C(\O)c1cccc(NC(=O)c2ccccc2)c1 | –
1.43 | > 100 | O=C(O)C(=O)/C=C(\O)c1c[nH]c2ccccc12 | –
34 | > 100 | COc1ccc(Cn2nnnc2C(=O)/C=C(\O)c2c[nH]c3ccc(Cl)cc23)cc1 | –
– | > 100 | O=C(CC(=O)c1c[nH]c2ccccc12)c1nnn[nH]1 | IC50 [5]: 1900 nM; IC50 [6]: 2 µM
1.8 | 79 | O=C(CC(=O)c1c[nH]c2ccc(F)cc12)c1nnn[nH]1 | –
40 | 40 | O=C(O)c1ccc2[nH]cc(C(=O)CC(=O)c3nnn[nH]3)c2c1 | –
> 100 | > 100 | O=C(O)C(=O)/C=C(\O)c1ccnc2ccccc12 | –
6.5 | 82 | O=C(O)C(=O)/C=C(\O)c1cc(/C(O)=C/C(=O)C(=O)O)c2ccccc2n1 | –

SMILES | IC50 [1] [µM] | IC50 [2] [µM] | also measured
O=C(O)C(=O)/C=C(\O)c1cccc(OCc2ccccc2)c1 | 0.35 | – | IC50 [3]: 600 nM; IC50 [4]: 100 µM
O=C(O)C(=O)/C=C(\O)c1c[nH]c2ccc(Cl)cc12 | 0.52 | – | –
